The values below come from patent US20250325516A1, “SEROTONIN ANALOGUES FOR USE IN TREATING METALLOPTOSIS-ASSOCIATED DISORDERS” (INSTITUT CURIE, priority 2022, published 2025).

One assay relates to BELA cells. The assay is described as follows: RhoNox-M (lysosomal Fe2+ probe) flow cytometry. It is filed as cell-based. To be noted: 10 μM, 24 h. The protocol: All cells were grown in an incubator equilibrated at 37° C. with 5% CO2, grown to confluence and split with Trypsin/EDTA (Gibco, TRYPGIB01) once or twice a week according to confluence. HMLER cells ([…]) naturally repressing E-cadherin, obtained from human mammary epithelial cells infected with a retrovirus carrying hTERT, SV40 and the oncogenic allele H-rasV12, and HMLER CD44 and TFRC ko clones were cultured in DMEM/F12 (Thermo Fisher Scientific, 31331093) supplemented with 10% FBS (v/v) (Thermo Fisher Scientific, 10270106), 10 μg/mL insulin (Sigma-Aldrich, 10516), 0.5 μg/mL hydrocortisone (Sigma-Aldrich, H0888) and 0.5 μg/ml puromycin (Life Technologies, A11138-02), unless stated otherwise. PDAC053 T cells were grown in serum-free ductal medium: DMEM/F12 supplemented with 0.61 g/500 mL nicotinamide (Sigma-Aldrich, 3376), 2.50 g/500 mL glucose (Sigma-Aldrich, G6152), 1:200 ITS+ (Corning, 354352), 1:20 Nu-serum IV (Corning, 355104), 100 ng/ml cholera toxin, 1 μM dexamethasone (Sigma-Aldrich, D4902), 50 nM 3,3′,5-triiodo-L-thyronine (Sigma-Aldrich, T6397) and 1× PenStrep. BELA cells were cultured using published procedures (Nat. Comm. doi: 10.1038/ncomms14750).
Bodipy-C11 (Thermo Fisher Scientific, D3861) were used according to the manufacturer's protocol. RhoNox-M (in-house) was added to live cells prior to flow cytometry analysis for 1 h at a concentration of 1 μM. For the Annexin/PI assay (Thermo Fisher Scientific, V13245, manufacturer's protocol) BELA cells were treated with RSL3 in the presence or absence of 1 μM Liproxstatin-1 (Sigma-Aldrich, SML1414) or 10 μM A3 for 24 h. Cells were then washed twice with ice-cold 1×PBS and suspended in incubation buffer prior to being analyzed by flow cytometry. The manufacturer's protocol was followed. For each condition, at least 10,000 cells were counted. Data were recorded on an Attune (Thermo Fisher Scientific) and processed using FlowJo (FLOWJO, LLC).

A short description of assay [1]: Colorimetric assessment of metal complex formation in aqueous solution. It is filed as binding. Here is the method: […] assessment of complex formation: To an aqueous solution of serotonin hydrochloride (3 equiv., C=0.1 M) or A3 formic salt (3 equiv., C=0.1 M) iron (III) chloride (1 equiv.) or copper (II) sulfate (C=0.1 M) was added. A color change characterized the formation of metal complexes.

The conditions of assay [2]: reference in cyclic voltammetry; cited from earlier work.
In assay [3] the test system is PDAC cells. The assay is described as follows: Click-labelling fluorescence microscopy with LysoTracker and organelle antibodies, PDAC cells (FIG. 9). It is filed as cell-based. The note with it: 10 μM, 3 h. The protocol: Pancreatic Ductal Adenocarcinoma (PDAC) cells were grown at 37° C. and 5% CO2 using medium prepared based on previously described (https://doi.org/10.1053/j.gastro.2004.03.058). Cells were plated on cover slips 24 h prior to the experiment. The cells were treated with 10 µM of compounds for 3 h and LysoTracker Deep Red (ThermoFisher Scientific L12492, 1:10000) according to the manufacturer's protocol. Subsequently, cells were washed three times with 1×PBS and fixed with 2% paraformaldehyde (w/v) in 1×PBS for 12 min, and then washed three times with 1×PBS. After fixation, cells were permeabilized with 0.1% Triton X-100 (v/v) in 1×PBS for 5 min and washed three times with 1×PBS. Then, cells were blocked in 2% BSA, 0.2% Tween-20 (w/v)/1×PBS (blocking buffer) for 20 min at RT. The click reaction cocktail was prepared from Click-iT EdU Imaging Kits (ThermoFisher Scientific, C10337) according to the manufacturer's protocol. Briefly, 868 μL of 1× Click-iT reaction buffer was mixed with 40 μl CuSO4 solution, 2 μL Alexa Fluor azide and 90 μl reaction buffer additive (sodium ascorbate) to reach a final volume of 1 mL. Cover slips were incubated with 50 μl of the click reaction cocktail in the dark at RT for 30 minutes, then washed three times with 1×PBS. Further, cells were incubated with the relevant antibody in blocking buffer for 1 h at room temperature and washed three times with blocking buffer. Then, cells were incubated with secondary antibodies for 1 h. Finally, cover slips were washed three times with 1×PBS and mounted using VECTASHIELD (Vector Laboratories) containing DAPI and were sealed with nail varnish Express manucure (Maybelline, 16P201). Fluorescence images were acquired using a Deltavision real-time microscope (Applied Precision). 100×/1.4NA objectives were used for 2D and 3D acquisitions that were deconvoluted with SoftWorx (Ratio conservative-10 iterations, Applied Precision) and processed with ImageJ.

Assay [4] relates to PDAC cells. Kind of assay: Anti-ferroptotic activity: BODIPY-C11 flow cytometry, PDAC cells co-treated with RSL3 (FIG. 8). It is filed as cell-based. The note with it: RSL3 200 nM, compounds 10 μM. The protocol:
Pancreatic Ductal Adenocarcinoma (PDAC) cells were grown at 37° C. and 5% CO2 using medium prepared based on previously described (https://doi.org/10.1053/j.gastro.2004.03.058).
PDAC cells were seeded on 6 well plates at the density of 2×10^5 cells/well. RSL3 (200 nM) was added along with compounds (10 μM for screening) on the following day and after 23 hr, BODIPY (4 μM) was added for 1 hr. The media was removed and the cells were washed with PBS twice before typsinization. The cells were harvested, pelleted, washed with PBS and finally PBS buffer containing 10% FBS and EDTA, was added for flow cytometry. The results are shown in FIG. 8 and this enabled us to establish a robust structure activity relationship on the serotonin scaffold.

Assay [5] can be described thus: Cyclic voltammetry of FeCl3 after addition of compounds (FIG. 10b). It is filed as binding. To be noted: 1 mM FeCl3 in 0.3 M nBu4NBF4 in MeCN, scan rate 2 V/s. The protocol: Cyclic voltammetry experiments were performed with a three-electrode cell under argon. Saturated Calomel Electrode (SCE) was used as reference, a steady Glassy Carbon (GC) electrode of diameter 3 mm was selected as working electrode and a Platinum wire as counter-electrode. All cyclic voltammograms were recorded at RT with a μ-autolab III from Metrohm using Nova software with a scan rate of 2 V/s. MeCN was used as a degassed HPLC grade from Carlo Erba. Water was mQ H2O. Stock solution of FeCl3 (100 mM) and Lip-1, A3, A0 and DFO (20 mM) were prepared with 0.3 M nBu4NBF4 in MeCN. 1 mM FeCl3 in 0.3 M nBu4NBF4 in MeCN (1 mL) was used as working solution for recording and subsequently equivalents of compounds were added, stirred and recorded.

Molecules are shown by their SMILES. Where a name gives a salt, the structure may show the parent alone.

For the compound `CCCCNCCc1c[nH]c2ccc(O)cc12` [LT265B], in the assay with BELA cells, the “RhoNox-M fluorescence (lysosomal Fe(II))” value is “increase of RhoNox-M fluorescence”.
For the compound `NCCc1c[nH]c2ccc(O)cc12` [Serotonin, serotonin hydrochloride], the “colour of solution in the presence of FeCl3 and CuSO4, indicative of complex formation” value in assay [1] (aqueous solution, 3 equiv. compound, C=0.1 M) was “form differently colored solutions”. For the same compound, in assay [1] (colorimetric complexation studies in solution (FIG. 1) and NMR spectroscopy (FIG. 2)), the “complex formation with Fe(II), Fe(III) and Cu(II)” value is “form readily complexes”.
In the case of `CCCCCCCCCCNCCc1c[nH]c2ccc(O)cc12` [LT262A], the “RhoNox-M fluorescence (lysosomal Fe(II))” value in the assay on BELA cells is on record as “increase of RhoNox-M fluorescence”.
On to `CC(=O)N(O)CCCCCNC(=O)CCC(=O)N(O)CCCCCNC(=O)CCC(=O)N(O)CCCCCN` [DFO], for which the “Fe^3+ chelation, known property of the reference” value in assay [2] was “known Fe^3+ chelator”.
In the case of `C#CCN(CC#C)CCc1c[nH]c2ccc(O)cc12` [Compound A4], the localization in lysosomes entry in the assay with PDAC cells [3] is recorded as “localized in lysosomes”. In the assay with PDAC cells [4], the “anti-ferroptotic activity (active / inactive compound)” value is “Active”.
The corresponding values for `C#CCOc1ccc2[nH]cc(CCN(CC#C)CC#C)c2c1` [Compound A1] are “localized in lysosomes” and “Active”.
With `Oc1ccc2[nH]cc(CCNC3CCCCC3)c2c1` [LC336], in the assay on BELA cells, the “RhoNox-M fluorescence (lysosomal Fe(II))” value is on record as “increase of RhoNox-M fluorescence”.
Regarding `C#CCOc1ccc2c(c1)c(CCN(CC#C)CC#C)cn2CC#C` [Compound A0], the “binding / chelation of Fe^3+ (cyclic voltammetry)” value in assay [5] is “doesn't binds to Fe^3+”. For the same compound, the localization in lysosomes result in the assay on PDAC cells [3] is “doesn't go to lysosomes”. Further, in the assay with PDAC cells [4], the “anti-ferroptotic activity (active / inactive compound)” value is “inactive”.
Turning to `CC(CCCCCCC(C)NCCc1c[nH]c2ccc(O)cc12)NCCc1c[nH]c2ccc(O)cc12` (centres unmarked) [LC357], the “RhoNox-M fluorescence (lysosomal Fe(II))” value with BELA cells is reported as “increase of RhoNox-M fluorescence”.
